Test results from US10308643B2, “Heterocyclic compound” (Takeda Pharmaceutical Company Limited, priority 2015, dated 2019).

Columns and labels:
Format in all cases: biochemical
[1] = molecular target: T1, HDAC6 enzyme (Homo sapiens, UniProt Q9UBN7); assay: HDAC1/6 Enzyme Inhibitory Assay (HDAC-Glo I/II Assay kit), HDAC6; details: 1 μM test compound; wells without enzyme = 100% inhibition; read-out: HDAC6 inhibitory rate (%) (1 μM)
T1 construct: transducing full length HDAC1 and HDAC6 genes into Sf-9 insect cells; GST; purchased SignalChem; host or cells: Sf-9 insect cells
T1 sequence (Q9UBN7 1-1215): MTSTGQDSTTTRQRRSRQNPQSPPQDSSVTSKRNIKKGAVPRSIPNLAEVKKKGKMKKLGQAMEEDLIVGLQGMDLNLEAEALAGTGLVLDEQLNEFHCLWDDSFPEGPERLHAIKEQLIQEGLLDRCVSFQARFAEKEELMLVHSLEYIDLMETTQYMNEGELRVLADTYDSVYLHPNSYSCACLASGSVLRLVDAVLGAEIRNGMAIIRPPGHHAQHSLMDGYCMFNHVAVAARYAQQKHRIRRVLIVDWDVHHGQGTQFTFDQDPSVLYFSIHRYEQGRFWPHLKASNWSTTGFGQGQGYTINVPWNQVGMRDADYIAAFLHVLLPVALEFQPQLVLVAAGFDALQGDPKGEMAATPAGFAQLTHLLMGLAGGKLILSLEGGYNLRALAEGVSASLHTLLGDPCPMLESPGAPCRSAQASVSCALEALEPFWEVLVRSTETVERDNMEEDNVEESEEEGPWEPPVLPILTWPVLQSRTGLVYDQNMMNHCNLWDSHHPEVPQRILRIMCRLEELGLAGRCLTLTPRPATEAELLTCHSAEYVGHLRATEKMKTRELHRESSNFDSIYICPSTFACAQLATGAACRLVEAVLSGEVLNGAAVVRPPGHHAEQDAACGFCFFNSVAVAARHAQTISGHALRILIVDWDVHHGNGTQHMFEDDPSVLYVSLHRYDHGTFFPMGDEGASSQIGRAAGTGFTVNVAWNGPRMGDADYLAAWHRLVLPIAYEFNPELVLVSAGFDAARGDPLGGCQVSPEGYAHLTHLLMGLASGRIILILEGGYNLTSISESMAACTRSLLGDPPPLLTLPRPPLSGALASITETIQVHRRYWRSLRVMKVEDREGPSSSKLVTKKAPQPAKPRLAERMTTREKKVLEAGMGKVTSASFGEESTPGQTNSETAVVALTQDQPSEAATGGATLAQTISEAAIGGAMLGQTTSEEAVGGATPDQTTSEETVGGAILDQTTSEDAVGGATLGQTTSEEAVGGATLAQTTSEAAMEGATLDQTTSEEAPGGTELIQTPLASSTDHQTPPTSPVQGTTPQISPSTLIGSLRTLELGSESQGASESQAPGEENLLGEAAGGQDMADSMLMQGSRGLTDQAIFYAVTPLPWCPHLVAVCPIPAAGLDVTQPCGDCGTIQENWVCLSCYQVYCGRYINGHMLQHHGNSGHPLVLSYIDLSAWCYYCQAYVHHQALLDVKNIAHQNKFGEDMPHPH
Outline: (§1)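 Full-length human HDAC1 or HDAC6, expressed in Sf-9 cells and GST-purified, was preincubated with compound for 60 min at room temperature in Tris-HCl pH 7.5 buffer with MgCl2, KCl, NaCl, glutathione and Tween-20. HDAC-Glo substrate-developer was then added, and luminescence was read after 20 min. Inhibition was referenced to no-enzyme wells as 100%.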

[2] = molecular target: T2, HDAC1 enzyme (Homo sapiens, UniProt Q13547); assay: HDAC1/6 Enzyme Inhibitory Assay (HDAC-Glo I/II Assay kit), HDAC1; details: 1 μM test compound; wells without enzyme = 100% inhibition; read-out: HDAC1 inhibitory rate (%) (1 μM)
T2 construct: transducing full length HDAC1 and HDAC6 genes into Sf-9 insect cells; GST; purchased SignalChem; host or cells: Sf-9 insect cells
T2 sequence (Q13547 whole entry): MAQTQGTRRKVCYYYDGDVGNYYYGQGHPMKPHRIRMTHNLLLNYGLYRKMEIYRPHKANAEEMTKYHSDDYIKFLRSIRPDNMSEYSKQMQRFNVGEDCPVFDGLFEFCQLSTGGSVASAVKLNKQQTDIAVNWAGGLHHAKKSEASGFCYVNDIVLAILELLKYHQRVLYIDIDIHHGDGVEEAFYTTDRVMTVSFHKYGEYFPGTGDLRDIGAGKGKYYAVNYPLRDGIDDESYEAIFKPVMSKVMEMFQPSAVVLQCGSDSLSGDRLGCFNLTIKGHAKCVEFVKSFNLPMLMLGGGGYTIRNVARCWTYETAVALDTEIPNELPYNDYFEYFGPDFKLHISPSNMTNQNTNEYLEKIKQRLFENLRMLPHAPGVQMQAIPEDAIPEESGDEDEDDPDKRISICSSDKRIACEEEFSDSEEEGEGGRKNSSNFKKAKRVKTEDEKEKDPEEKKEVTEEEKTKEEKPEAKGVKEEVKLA
Outline: as §1

[3] = molecular target: T3, HDAC9 enzyme (Homo sapiens, UniProt Q9UKV0); assay: HDAC9 Enzyme Inhibitory Assay (HDAC-Glo class IIa); details: 1 μM test compound; wells without enzyme = 100% inhibition; read-out: HDAC9 inhibitory rate (%) (1 μM)
T3 construct: transducing full length HDAC9 gene into Sf-9 insect cells; made in house; host or cells: Sf-9 insect cells
T3 sequence (Q9UKV0 whole entry, species assumed): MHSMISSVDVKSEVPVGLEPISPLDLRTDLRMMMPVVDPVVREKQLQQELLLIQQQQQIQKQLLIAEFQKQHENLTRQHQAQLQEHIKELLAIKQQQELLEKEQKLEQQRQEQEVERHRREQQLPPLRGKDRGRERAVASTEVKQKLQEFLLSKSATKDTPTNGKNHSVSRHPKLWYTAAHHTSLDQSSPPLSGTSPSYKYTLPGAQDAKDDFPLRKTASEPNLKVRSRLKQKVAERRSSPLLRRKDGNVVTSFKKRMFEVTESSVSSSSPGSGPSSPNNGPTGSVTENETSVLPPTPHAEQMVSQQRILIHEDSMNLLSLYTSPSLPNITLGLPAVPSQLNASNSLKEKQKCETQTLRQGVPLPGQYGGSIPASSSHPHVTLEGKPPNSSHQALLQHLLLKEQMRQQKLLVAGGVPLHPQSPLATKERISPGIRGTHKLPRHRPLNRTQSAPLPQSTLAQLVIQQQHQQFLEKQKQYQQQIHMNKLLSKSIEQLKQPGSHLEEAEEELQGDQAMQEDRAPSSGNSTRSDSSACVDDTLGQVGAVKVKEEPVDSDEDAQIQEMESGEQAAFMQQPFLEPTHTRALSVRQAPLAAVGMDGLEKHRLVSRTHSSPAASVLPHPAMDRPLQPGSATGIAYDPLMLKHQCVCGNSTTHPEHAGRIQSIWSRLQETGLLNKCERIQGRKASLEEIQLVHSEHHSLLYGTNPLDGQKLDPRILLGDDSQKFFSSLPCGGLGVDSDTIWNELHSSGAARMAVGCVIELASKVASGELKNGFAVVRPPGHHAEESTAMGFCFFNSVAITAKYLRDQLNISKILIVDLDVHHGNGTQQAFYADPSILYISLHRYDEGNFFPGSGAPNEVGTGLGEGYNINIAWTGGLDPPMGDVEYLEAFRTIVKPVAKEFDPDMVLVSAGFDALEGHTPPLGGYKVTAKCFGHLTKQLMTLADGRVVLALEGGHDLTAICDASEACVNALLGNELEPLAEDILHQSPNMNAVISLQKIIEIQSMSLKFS
Outline: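 Full-length human HDAC9 from Sf-9 cells, Ni-NTA purified, preincubated with compound for 60 min at room temperature in Tris-HCl pH 7.5 buffer (MgCl2, KCl, NaCl, glutathione, Tween-20). HDAC-Glo class IIa substrate-developer added; luminescence read after 20 min, with no-enzyme wells defining 100% inhibition.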

inhibition at 1 µM [1] [%] | inhibition at 1 µM [2] [%] | inhibition at 1 µM [3] [%] | SMILES
99 | 7 | 49 | O=C(N[C@@H]1CCOC[C@H]1N1Cc2ccc(-c3noc(C(F)(F)F)n3)cc2C1=O)[C@@H]1CC1(F)F [Example 172, (1S)-2,2-difluoro-N-((3S,4R)-3-(1-oxo-6-(5-(trifluoromethyl)-1,2,4-oxadiazol-3-yl)-1,3-dihydro-2H-isoindol-2-yl)tetrahydro-2H-pyran-4-yl)cyclopropanecarboxamide]
98 | 46 | 89 | C[C@H](c1ccccc1)N1CC[C@@H]2CC[C@@H](N3Cc4ccc(-c5noc(C(F)(F)F)n5)cc4C3=O)[C@@H]21 [Example 62, 2-((3aS,6R,6aR)-1-((1R)-1-phenylethyl)octahydrocyclopenta[b]pyrrol-6-yl)-6-(5-(trifluoromethyl)-1,2,4-oxadiazol-3-yl)isoindolin-1-one]
98 | 12 | 66 | CC1(C(=O)N[C@@H]2CCCC[C@H]2N2Cc3ccc(-c4noc(C(F)(F)F)n4)cc3C2=O)CC1 [Example 36, 1-methyl-N-((1R,2R)-2-(1-oxo-6-(5-(trifluoromethyl)-1,2,4-oxadiazol-3-yl)-1,3-dihydro-2H-isoindol-2-yl)cyclohexyl) cyclopropanecarboxamide]
100 | 16 | 62 | CC(C)(C)OC(=O)N[C@@H]1COCC[C@H]1N1Cc2ccc(-c3noc(C(F)(F)F)n3)cc2C1=O [Example 81, tert-butyl ((3S,4R)-4-(1-oxo-6-(5-(trifluoromethyl)-1,2,4-oxadiazol-3-yl)-1,3-dihydro-2H-isoindol-2-yl)tetrahydro-2H-pyran-3-yl)carbamate]
71 | -2 | 19 | O=C1NCC(C(=O)N[C@@H]2CCCC[C@H]2N2Cc3ccc(-c4noc(C(F)(F)F)n4)cc3C2=O)N1 (stereo partly drawn) [Example 109, 2-oxo-N-((1R,2R)-2-(1-oxo-6-(5-(trifluoromethyl)-1,2,4-oxadiazol-3-yl)-1,3-dihydro-2H-isoindol-2-yl)cyclohexyl)imidazolidine-4-carboxamide]
31 | 13 | 38 | CC1(C(=O)N[C@H]2CCC[C@@H]2N2Cc3ccc(-c4noc(C(F)(F)F)n4)cc3C2=O)COC1 [Example 152, 3-methyl-N-((1S,2S)-2-(1-oxo-6-(5-(trifluoromethyl)-1,2,4-oxadiazol-3-yl)-1,3-dihydro-2H-isoindol-2-yl)cyclopentyl)oxetane-3-carboxamide]
95 | 2 | 42 | O=C1C[C@@H](C(=O)N[C@@H]2CCCC[C@H]2N2Cc3ccc(-c4noc(C(F)(F)F)n4)cc3C2=O)N1 [Example 93, (2S)-4-oxo-N-((1R,2R)-2-(1-oxo-6-(5-(trifluoromethyl)-1,2,4-oxadiazol-3-yl)-1,3-dihydro-2H-isoindol-2-yl)cyclohexyl)azetidine-2-carboxamide]
39 | 1 | 11 | CC(C)(C)N1CC(C(=O)N[C@@H]2CCCC[C@H]2N2Cc3ccc(-c4noc(C(F)(F)F)n4)cc3C2=O)C1 [Example 114, 1-tert-butyl-N-((1R,2R)-2-(1-oxo-6-(5-(trifluoromethyl)-1,2,4-oxadiazol-3-yl)-1,3-dihydro-2H-isoindol-2-yl)cyclohexyl)azetidine-3-carboxamide]
76 | 6 | 72 | N[C@@H]1CCCC[C@H]1N1Cc2ccc(-c3noc(C(F)(F)F)n3)cc2C1=O (relative stereo) [Example 7, trans-2-(2-aminocyclohexyl)-6-(5-(trifluoromethyl)-1,2,4-oxadiazol-3-yl)isoindolin-1-one]
92 | 30 | 90 | O=C(Cc1ccc(F)cc1)N1CC(N2Cc3ncc(-c4noc(C(F)(F)F)n4)cc3C2=O)C1 [Example 77, 6-(1-((4-fluorophenyl)acetyl)azetidin-3-yl)-3-(5-(trifluoromethyl)-1,2,4-oxadiazol-3-yl)-6,7-dihydro-5H-pyrrolo[3,4-b]pyridin-5-one]
100 | 7 | 50 | O=C(N[C@@H]1CCCC[C@H]1N1Cc2ccc(-c3noc(C(F)(F)F)n3)cc2C1=O)C1CC1(F)F (stereo partly drawn) [Example 105, 2,2-difluoro-N-((1R,2R)-2-(1-oxo-6-(5-(trifluoromethyl)-1,2,4-oxadiazol-3-yl)-1,3-dihydro-2H-isoindol-2-yl)cyclohexyl) cyclopropanecarboxamide]
99 | 18 | 73 | Cn1cncc1C(=O)N[C@@H]1CCCC[C@H]1N1Cc2ccc(-c3noc(C(F)(F)F)n3)cc2C1=O [Example 110, 1-methyl-N-((1R,2R)-2-(1-oxo-6-(5-(trifluoromethyl)-1,2,4-oxadiazol-3-yl)-1,3-dihydro-2H-isoindol-2-yl)cyclohexyl)-1H-imidazole-5-carboxamide]
99 | -5 | 36 | O=C1c2cc(-c3noc(C(F)(F)F)n3)ccc2CN1[C@@H]1CCCC[C@H]1NC(=O)C1(c2ccccc2)COC1 [Example 134, N-((1R,2R)-2-(1-oxo-6-(5-(trifluoromethyl)-1,2,4-oxadiazol-3-yl)-1,3-dihydro-2H-isoindol-2-yl)cyclohexyl)-3-phenyloxetane-3-carboxamide]
83 | 7 | 46 | O=C(N[C@H]1CCCC[C@@H]1N1Cc2ccc(-c3noc(C(F)(F)F)n3)cc2C1=O)C1CC1 [Example 33, N-((1S,2S)-2-(1-oxo-6-(5-(trifluoromethyl)-1,2,4-oxadiazol-3-y)-1,3-dihydro-2H-isoindol-2-yl)cyclohexyl)cyclopropanecarboxamide]
98 | 87 | 96 | CC(=O)N1CC[C@@H](N2Cc3ccc(-c4noc(C(F)(F)F)n4)cc3C2=O)[C@H](c2ccccc2)C1 [Example 20, 2-((3R,4R)-1-acetyl-3-phenylpiperidin-4-yl)-6-(5-(trifluoromethyl)-1,2,4-oxadiazol-3-yl)isoindolin-1-one]
100 | 94 | 99 | O=C1c2cc(-c3noc(C(F)(F)F)n3)ccc2CN1[C@@H]1CCNC[C@H]1c1ccc(F)cc1 (relative stereo) [Example 45, 2-(trans-3-(4-fluorophenyl)piperidin-4-yl)-6-(5-(trifluoromethyl)-1,2,4-oxadiazol-3-yl)isoindolin-1-one]
99 | 14 | 59 | O=C(N[C@@H]1CCCC[C@H]1N1Cc2ccc(-c3noc(C(F)(F)F)n3)cc2C1=O)C1CCC1 [Example 97, N-((1R,2R)-2-(1-oxo-6-(5-(trifluoromethyl)-1,2,4-oxadiazol-3-yl)-1,3-dihydro-2H-isoindol-2-yl)cyclohexyl) cyclobutanecarboxamide]
